How the values were obtained:
[1] = molecular target: Human immunodeficiency virus type 1 protease (Human immunodeficiency virus 1) (UniProt Q72874); experiment: Antiviral potency of HIV-1 in MT-4 human T lymphoid cells with IIIb isolate; type: functional, cell-based
[2] = molecular target: Human immunodeficiency virus type 1 protease (Human immunodeficiency virus 1, UniProt Q72874); experiment: Tested against S2-binding site of HIV-1 protease
[3] = tested on: MT4; experiment: Compound tested for the antiviral potency of HIV-1 in MT-4 human T lymphoid cells with IIIb isolate (n=5); type: functional; conditions: read-out: CIC95

SMILES	IC95 [1] [nM]	IC50 [2] [nM]	IC95 [3] [nM]
CC(C)[C@@H]1[C@H](OC(=O)N[C@@H](Cc2ccccc2)[C@H](O)CN2C[C@H]3CCCC[C@H]3C[C@H]2C(=O)NC(C)(C)C)CCS1(=O)=O	50	3	
CC[C@H]1[C@@H](OC(=O)N[C@@H](Cc2ccccc2)[C@H](O)CN2C[C@H]3CCCC[C@H]3C[C@H]2C(=O)NC(C)(C)C)CCS1(=O)=O	400	5.4	
C[C@@H]1OCC[C@@H]1OC(=O)N[C@@H](Cc1ccccc1)[C@H](O)CN1C[C@H]2CCCC[C@H]2C[C@H]1C(=O)NC(C)(C)C	400	52.4	
C[C@@H]1[C@H](OC(=O)N[C@@H](Cc2ccccc2)[C@H](O)CN2C[C@H]3CCCC[C@H]3C[C@H]2C(=O)NC(C)(C)C)CCS1(=O)=O	200	22.3	
C[C@H]1OCC[C@H]1OC(=O)N[C@@H](Cc1ccccc1)[C@H](O)CN1C[C@H]2CCCC[C@H]2C[C@H]1C(=O)NC(C)(C)C	1600	169	
CC(C)[C@H]1[C@@H](OC(=O)N[C@@H](Cc2ccccc2)[C@H](O)CN2C[C@H]3CCCC[C@H]3C[C@H]2C(=O)NC(C)(C)C)CCS1(=O)=O	200	11	
CC(C)(C)NC(=O)[C@@H]1C[C@@H]2CCCC[C@@H]2CN1C[C@@H](O)[C@H](Cc1ccccc1)NC(=O)O[C@@H]1CCS(=O)(=O)C1	> 800	140	
CC(C)[C@H]1SCC[C@H]1OC(=O)N[C@@H](Cc1ccccc1)[C@H](O)CN1C[C@H]2CCCC[C@H]2C[C@H]1C(=O)NC(C)(C)C		9	
CC[C@@H]1[C@H](OC(=O)N[C@@H](Cc2ccccc2)[C@H](O)CN2C[C@H]3CCCC[C@H]3C[C@H]2C(=O)NC(C)(C)C)CCS1(=O)=O	800	13.1	
C[C@H]1[C@@H](OC(=O)N[C@@H](Cc2ccccc2)[C@H](O)CN2C[C@H]3CCCC[C@H]3C[C@H]2C(=O)NC(C)(C)C)CCS1(=O)=O	200	11.4	
CC(C)C[C@@H]1[C@H](OC(=O)N[C@@H](Cc2ccccc2)[C@H](O)CN2C[C@H]3CCCC[C@H]3C[C@H]2C(=O)NC(C)(C)C)CCS1(=O)=O	1500	30	
CC(C)C[C@H]1[C@@H](OC(=O)N[C@@H](Cc2ccccc2)[C@H](O)CN2C[C@H]3CCCC[C@H]3C[C@H]2C(=O)NC(C)(C)C)CCS1(=O)=O	400	12	
CC(C)(C)NC(=O)[C@@H]1C[C@@H]2CCCC[C@@H]2CN1C[C@@H](O)[C@H](Cc1ccccc1)NC(=O)O[C@H]1CCS(=O)(=O)C1		75	350
NC(=O)OC[C@@H]1CCCOC1		694	
CC(C)(C)NC(=O)[C@@H]1C[C@@H]2CCCC[C@@H]2CN1C[C@@H](O)[C@H](Cc1ccccc1)NC(=O)OCCS(C)(=O)=O		1030	
CC(C)(C)NC(=O)[C@@H]1C[C@@H]2CCCC[C@@H]2CN1C[C@@H](O)[C@H](Cc1ccccc1)NC(=O)O[C@H]1CCOC1	800		
